Laboratory results published in PubChem BioAssay (NCI).
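All cell lines were grown in 96-well plates and treated with compound for 48 hours. TGI: concentration producing complete growth inhibition.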

Key:
Assay in all cases: NCI tumour cell line growth inhibition, 48 h
OVCAR-8 ovarian = tested on: OVCAR-8 ovarian
SW-620 colon = tested on: SW-620 colon
UO-31 renal = tested on: UO-31 renal
786-0 renal = tested on: 786-0 renal
HL-60(TB) leukemia = tested on: HL-60(TB) leukemia
EKVX NSCLC = tested on: EKVX NSCLC
XF 498 CNS = tested on: XF 498 CNS
ACHN renal = tested on: ACHN renal
SNB-19 CNS = tested on: SNB-19 CNS
M19-MEL melanoma = tested on: M19-MEL melanoma
RPMI-8226 leukemia = tested on: RPMI-8226 leukemia
UACC-62 melanoma = tested on: UACC-62 melanoma
LXFL 529 NSCLC = tested on: LXFL 529 NSCLC
U251 CNS = tested on: U251 CNS
HOP-18 NSCLC = tested on: HOP-18 NSCLC
HT29 colon = tested on: HT29 colon
K-562 leukemia = tested on: K-562 leukemia
SNB-75 CNS = tested on: SNB-75 CNS
SF-539 CNS = tested on: SF-539 CNS
HCT-116 colon = tested on: HCT-116 colon
SK-MEL-28 melanoma = tested on: SK-MEL-28 melanoma
M14 melanoma = tested on: M14 melanoma
CCRF-CEM leukemia = tested on: CCRF-CEM leukemia
NCI-H522 lung = tested on: NCI-H522 lung
RXF-631 renal = tested on: RXF-631 renal
HCC-2998 colon = tested on: HCC-2998 colon
DMS 273 small cell lung = tested on: DMS 273 small cell lung
MALME-3M melanoma = tested on: MALME-3M melanoma
NCI-H460 lung = tested on: NCI-H460 lung
RXF 393 renal = tested on: RXF 393 renal
SN12C renal = tested on: SN12C renal
UACC-257 melanoma = tested on: UACC-257 melanoma
COLO 205 colon = tested on: COLO 205 colon
SF-268 CNS = tested on: SF-268 CNS
SR leukemia = tested on: SR leukemia
OVCAR-4 ovarian = tested on: OVCAR-4 ovarian
CAKI-1 renal = tested on: CAKI-1 renal
NCI-H226 lung = tested on: NCI-H226 lung
A549 NSCLC = tested on: A549 NSCLC
TK-10 renal = tested on: TK-10 renal
KM20L2 colon = tested on: KM20L2 colon
SK-MEL-2 melanoma = tested on: SK-MEL-2 melanoma
KM12 colon = tested on: KM12 colon
HOP-92 NSCLC = tested on: HOP-92 NSCLC
HCT-15 colon = tested on: HCT-15 colon
NCI-H23 lung = tested on: NCI-H23 lung
MOLT-4 leukemia = tested on: MOLT-4 leukemia
DLD-1 colon = tested on: DLD-1 colon
SF-295 CNS = tested on: SF-295 CNS
OVCAR-3 ovarian = tested on: OVCAR-3 ovarian
SK-MEL-5 melanoma = tested on: SK-MEL-5 melanoma
HOP-62 NSCLC = tested on: HOP-62 NSCLC
OVCAR-5 ovarian = tested on: OVCAR-5 ovarian
SNB-78 CNS = tested on: SNB-78 CNS
LOX IMVI melanoma = tested on: LOX IMVI melanoma
DMS 114 small cell lung = tested on: DMS 114 small cell lung
A498 renal = tested on: A498 renal
IGROV1 ovarian = tested on: IGROV1 ovarian
SK-OV-3 ovarian = tested on: SK-OV-3 ovarian
P388 leukemia = tested on: P388 leukemia

Measured: TGI

CS(=O)(=O)N(N(CCCl)S(=O)(=O)c1ccccc1)S(C)(=O)=O
> 100 µM: OVCAR-8 ovarian | SW-620 colon | UO-31 renal | 786-0 renal | HL-60(TB) leukemia | EKVX NSCLC | XF 498 CNS | ACHN renal | SNB-19 CNS | M19-MEL melanoma | RPMI-8226 leukemia | UACC-62 melanoma | LXFL 529 NSCLC | U251 CNS | HOP-18 NSCLC | HT29 colon | K-562 leukemia | SNB-75 CNS | SF-539 CNS | HCT-116 colon | SK-MEL-28 melanoma | M14 melanoma | CCRF-CEM leukemia | NCI-H522 lung | RXF-631 renal | HCC-2998 colon | DMS 273 small cell lung | MALME-3M melanoma | NCI-H460 lung | RXF 393 renal | SN12C renal | UACC-257 melanoma | COLO 205 colon | SF-268 CNS | SR leukemia | OVCAR-4 ovarian | CAKI-1 renal | NCI-H226 lung | A549 NSCLC | TK-10 renal | KM20L2 colon | SK-MEL-2 melanoma | KM12 colon | HOP-92 NSCLC | HCT-15 colon | NCI-H23 lung | MOLT-4 leukemia | DLD-1 colon | SF-295 CNS | OVCAR-3 ovarian | SK-MEL-5 melanoma | HOP-62 NSCLC

C1CCN(c2nc(=[N+]3CCCCC3)ss2)CC1
> 100 µM: OVCAR-8 ovarian | SW-620 colon | UO-31 renal | 786-0 renal | HL-60(TB) leukemia | EKVX NSCLC | XF 498 CNS | ACHN renal | SNB-19 CNS | M19-MEL melanoma | RPMI-8226 leukemia | UACC-62 melanoma | LXFL 529 NSCLC | U251 CNS | HOP-18 NSCLC | HT29 colon | K-562 leukemia | SNB-75 CNS | SF-539 CNS | HCT-116 colon | OVCAR-5 ovarian | SK-MEL-28 melanoma | M14 melanoma | CCRF-CEM leukemia | NCI-H522 lung | RXF-631 renal | HCC-2998 colon | DMS 273 small cell lung | MALME-3M melanoma | NCI-H460 lung | RXF 393 renal | SNB-78 CNS | SN12C renal | UACC-257 melanoma | SF-268 CNS | LOX IMVI melanoma | SR leukemia | DMS 114 small cell lung | A498 renal | OVCAR-4 ovarian | CAKI-1 renal | NCI-H226 lung | A549 NSCLC | TK-10 renal | KM20L2 colon | SK-MEL-2 melanoma | KM12 colon | HOP-92 NSCLC | IGROV1 ovarian | HCT-15 colon | NCI-H23 lung | MOLT-4 leukemia | DLD-1 colon | SF-295 CNS | SK-MEL-5 melanoma | HOP-62 NSCLC | SK-OV-3 ovarian

Cc1nc(=O)n2c(c1C(=O)Nc1ccc(Cl)cc1)NCC2
> 100 µM: A498 renal | HOP-92 NSCLC
> 31.6 µM: P388 leukemia
